Measurements as given in the supplement of paper PMC10307832.

Columns and labels:
Experiment in all cases: relative viability (nuclei count vs DMSO), 5 days (fraction); higher = more cells survive
Linsitinib + Navitoclax = compound: C[C@]1(O)C[C@@H](c2nc(-c3ccc4ccc(-c5ccccc5)nc4c3)c3c(N)nccn32)C1 [Linsitinib] + CC1(C)CCC(c2ccc(Cl)cc2)=C(CN2CCN(c3ccc(C(=O)NS(=O)(=O)c4ccc(N[C@H](CCN5CCOCC5)CSc5ccccc5)c(S(=O)(=O)C(F)(F)F)c4)cc3)CC2)C1 [Navitoclax] (partner 0.5 µM)
In short: (§1)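 Dosing by pin tool came one day after lung cancer cell lines were seeded in 1536-well plates, using either one drug or a fixed anchor-drug dose plus five library-drug doses (not always all listed) in √10 steps. After 5 days, nuclei were counted on 4× images. Relative viability is treated-well nuclei count divided by vehicle-well nuclei count, and values are medians of duplicate plates.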

Linsitinib + Olaparib = compound: C[C@]1(O)C[C@@H](c2nc(-c3ccc4ccc(-c5ccccc5)nc4c3)c3c(N)nccn32)C1 [Linsitinib] + O=C(c1cc(Cc2n[nH]c(=O)c3ccccc23)ccc1F)N1CCN(C(=O)C2CC2)CC1 [Olaparib] (partner 8 µM)
In short: as §1

Ispinesib + OSI-027 = compound: Cc1ccc(C(=O)N(CCCN)[C@@H](c2nc3cc(Cl)ccc3c(=O)n2Cc2ccccc2)C(C)C)cc1 [Ispinesib] + COc1cccc2cc(-c3nc([C@H]4CC[C@H](C(=O)O)CC4)n4ncnc(N)c34)[nH]c12 [OSI-027] (partner 0.5 µM)
In short: as §1

Ispinesib + AZD7762 = compound: Cc1ccc(C(=O)N(CCCN)[C@@H](c2nc3cc(Cl)ccc3c(=O)n2Cc2ccccc2)C(C)C)cc1 [Ispinesib] + NC(=O)Nc1cc(-c2cccc(F)c2)sc1C(=O)N[C@H]1CCCNC1 [AZD7762] (partner 0.2 µM)
In short: as §1

Row | Cell Line | relative viability (Linsitinib + Navitoclax; first compound 0.01 µM) | relative viability (Linsitinib + Navitoclax; first compound 0.03162 µM) | relative viability (Linsitinib + Navitoclax; first compound 0.1 µM) | relative viability (Linsitinib + Navitoclax; first compound 0.3162 µM) | relative viability (Linsitinib + Navitoclax; first compound 1 µM) | relative viability (Linsitinib + Olaparib; first compound 0.01 µM) | relative viability (Linsitinib + Olaparib; first compound 0.03162 µM) | relative viability (Linsitinib + Olaparib; first compound 0.1 µM) | relative viability (Linsitinib + Olaparib; first compound 0.3162 µM) | relative viability (Linsitinib + Olaparib; first compound 1 µM) | relative viability (Ispinesib + OSI-027; first compound 0.001 µM) | relative viability (Ispinesib + OSI-027; first compound 0.003162 µM) | relative viability (Ispinesib + OSI-027; first compound 0.01 µM) | relative viability (Ispinesib + OSI-027; first compound 0.03162 µM) | relative viability (Ispinesib + OSI-027; first compound 0.1 µM) | relative viability (Ispinesib + AZD7762; first compound 0.001 µM) | relative viability (Ispinesib + AZD7762; first compound 0.003162 µM) | relative viability (Ispinesib + AZD7762; first compound 0.01 µM) | relative viability (Ispinesib + AZD7762; first compound 0.03162 µM) | relative viability (Ispinesib + AZD7762; first compound 0.1 µM)
1 | 201T | 1.22 | 1.26 | 1.23 | 1.29 | 1.24 | 0.874 | 0.61 | 0.84 | 0.676 | 0.862 | 0.828 | 0.952 | 0.834 | 0.56 | 0.181 | 0.662 | 0.521 | 0.643 | 0.65 | 0.309
2 | LC-2-ad | 0.368 | 0.406 | 0.486 | 0.339 | 0.368 | 0.621 | 0.751 | 0.73 | 0.625 | 0.685 | 0.808 | 0.855 | 0.973 | 0.352 | 0.264 | 0.942 | 0.941 | 1.02 | 0.425 | 0.322
3 | LCLC-97TM1 | 0.39 | 0.396 | 0.552 | 0.264 | 0.484 | 0.504 | 0.548 | 0.353 | 0.257 | 0.437 | 0.629 | 0.616 | 0.553 | 0.239 | 0.12 | 0.322 | 0.348 | 0.326 | 0.247 | 0.119
4 | NCI-H1915 | 0.813 | 0.811 | 0.81 | 0.681 | 0.781 | 0.238 | 0.221 | 0.243 | 0.225 | 0.237 | 0.679 | 0.514 | 0.751 | 0.252 | 0.212 | 0.728 | 0.687 | 0.748 | 0.451 | 0.112
5 | NCI-H3122 | 1.02 | 1.05 | 1.04 | 1.02 | 1.08 | 0.557 | 0.541 | 0.547 | – | 0.503 | 1.07 | 1.38 | 1.06 | 0.218 | 0.14 | 0.996 | 0.982 | 1.15 | 0.835 | 0.141
6 | NCI-H1993 | 0.937 | 0.902 | 0.839 | 1.01 | 0.6 | 1.09 | 0.692 | 0.879 | 0.698 | 0.982 | 0.518 | 0.601 | 0.565 | 0.514 | 0.442 | 0.918 | 0.821 | 0.636 | 0.646 | 0.508
7 | NCI-H2405 | 0.906 | 0.72 | 0.954 | 0.716 | 0.846 | 0.881 | 0.879 | 0.886 | 0.705 | 0.699 | 0.655 | 0.657 | 0.755 | 0.635 | 0.389 | 0.867 | 0.791 | 0.73 | 0.711 | 0.363
